According to EP0602465A1, “Use of CN substituted benzimidazoles” (BAYER AG, priority 1992, dated 1994):

How the values were obtained:
Assay in all cases: Coccidiosis in chickens: oocyst excretion in faeces (McMaster chamber)
Assay type in all cases: in vivo
Details in all cases: 3 days before until 8 days after infection, chicks 9 to 11 days old, 40 000 sporulated oocysts, 100 % = no effect, 0 % = full effect
E.acervulina = system: E.acervulina
E. maxima = system: E. maxima
E. tenella = system: E. tenella

Structure (SMILES) | E.acervulina Oocystenausscheidung in % im Vergleich zur unbehandelten infizierten Kontrolle (E.acervulina; Dosis 100 ppm in feed) [%] | E.acervulina Oocystenausscheidung in % im Vergleich zur unbehandelten infizierten Kontrolle (E.acervulina; Dosis 250 ppm in feed) | E. maxima Oocytenausscheidung in % im Vergleich zur unbehandelten infizierten Kontrolle (E. maxima; Dosis 100 ppm in feed) | E. maxima Oocytenausscheidung in % im Vergleich zur unbehandelten infizierten Kontrolle (E. maxima; Dosis 250 ppm in feed) [%] | E. tenella (E. tenella; Dosis 100 ppm in feed) [%] | E. tenella (E. tenella; Dosis 250 ppm in feed) [%]
CCCCN(Cn1c(C#N)nc2c(Br)cc(C(F)(F)F)cc21)C(=O)OC [Beispiel 37] | 28 | 0,5% | 26% | 0 | 32 | 0
CC(C)OC(=O)N(Cc1ccccc1)Cn1c(C#N)nc2c(Br)cc(C(F)(F)F)cc21 [Beispiel 57] | 38 | 0,01% | 5,3% | 0 | 93 | 0
